Patent US6444816B1, “Fused 7-oxo-pyrimidinyl compounds, preparation, composition and use thereof” (Dr. Reddy's Research Foundation, priority 1997, dated 2002)

Experiments:
[1] = target: T1, hPPARα (Homo sapiens, UniProt Q07869); assay: Determination of hPPARα activity (GAL4 luciferase reporter transactivation in HEK-293 cells); type: cell-based; conditions: compound at 50 μM, HEK-293 cells transfected with GAL4-hPPARα LBD
T1 construct: expressed in transfected cells; host or cells: HEK-293
T1 sequence (Q07869 239-466 limits assumed): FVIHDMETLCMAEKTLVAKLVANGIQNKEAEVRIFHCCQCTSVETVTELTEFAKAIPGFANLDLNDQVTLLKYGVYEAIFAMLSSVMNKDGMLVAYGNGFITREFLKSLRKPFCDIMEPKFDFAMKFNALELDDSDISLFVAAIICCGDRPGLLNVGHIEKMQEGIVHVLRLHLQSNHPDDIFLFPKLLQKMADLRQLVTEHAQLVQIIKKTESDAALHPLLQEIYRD
Protocol: Ligand binding domain of hPPARα was fused to DNA binding domain of Yeast transcription factor GAL4 in eucaryotic expression vector. Using superfect (Qiagen, Germany) as transfecting reagent HEK-293 cells were transfected with this plasmid and a reporter plasmid harboring the luciferase gene driven by a GAL4 specific promoter. Compound was added at different concentrations after 42 hrs of transfection and incubated overnight. Luciferase activity as a function of compound binding/activation capacity of PPARα was measured using Packard Luclite kit (Packard, USA) in Top Count (Ivan Sadowski, Brendan Bell, Peter Broag and Melvyn Hollis. Gene. 1992. 118: 137-141; Superfect Transfection Reagent Handbook. February 1997. Qiagen, Germany).

[2] = target: T2, hPPARγ1 (Homo sapiens, UniProt P37231); assay: Determination of hPPARγ activity (GAL4 luciferase reporter transactivation in HEK-293 cells); type: cell-based; conditions: compound at 1 μM, HEK-293 cells transfected with GAL4-hPPARγ1 LBD
T2 construct: expressed in transfected cells; host or cells: HEK-293
T2 sequence (P37231 238-503 limits assumed): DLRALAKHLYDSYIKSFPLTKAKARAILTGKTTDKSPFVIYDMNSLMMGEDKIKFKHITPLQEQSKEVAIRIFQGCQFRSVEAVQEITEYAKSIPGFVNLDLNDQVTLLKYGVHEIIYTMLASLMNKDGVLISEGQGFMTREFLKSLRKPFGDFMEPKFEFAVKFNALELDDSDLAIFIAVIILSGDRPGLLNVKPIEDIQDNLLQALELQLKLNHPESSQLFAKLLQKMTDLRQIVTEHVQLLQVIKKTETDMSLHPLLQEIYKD
Protocol: Ligand binding domain of hPPARγ1 was fused to DNA binding domain of Yeast transcription factor GAL4 in eucaryotic expression vector. Using lipofectamine (Gibco BRL, USA) as transfecting reagent HEK-293 cells were transfected with this plasmid and a reporter plasmid harboring the luciferase gene driven by a GAL4 specific promoter. Compound was added at 1 μM concentration after 48 hrs of transfection and incubated overnight. Luciferase activity as a function of drug binding/activation capacity of PPARγ1 was measured using Packard Luclite kit (Packard, USA) in Packard Top Count (Ivan Sadowski, Brendan Bell, Peter Broag and Melvyn Hollis. Gene. 1992. 118: 137-141; Guide to Eukaryotic Transfections with Cationic Lipid Reagents. Life Technologies, GIBCO BRL, USA).

[3] = test system: Swiss albino mice; assay: Triglyceride lowering activity in Swiss albino mice; type: in vivo; conditions: 3 mg/kg/day oral for 6 days
Protocol: Male Swiss albino mice (SAM) were obtained from NIN and housed in DRF animal house. All these animals were maintained under 12 hour light and dark cycle at 25±1° C. Animals were given standard laboratory chow SIN, Hyderabad, India) and water, ad libitun. SAM of 20-25 g body weight range and Guinea pigs of 500-700 g body weight range were used (Oliver, P., Plancke, M. O., Marzin, D., Clavey, V., Sauzieres, J and Fruchart, J. C. Effects of fenofibrate, gemfibrozil and nicotinic acid on plasma lipoprotein levels in normal and hyperlipidemic mice. Atherosclerosis. 1988. 70:107-114).
The test compounds were administered orally to Swiss albino mice at 0.3 to 30 mg/kg/day dose for 6 days. Control mice were treated with vehicle (0.25% Carboxymethylcellulose; dose 10 ml/kg). The test compounds were administered orally to Guinea pigs at 0.3 to 30 mg/kg/day dose for 6 days. Control animals were treated with vehicle (0.25% Carboxymethylcellulose; dose 5 ml/kg).
The blood samples were collected in fed state 1 hour after drug administration on 0 and 6 day of treatment. The blood was collected from the retro-orbital sinus through heparinised capillary in EDTA containing tubes. After centrifugation, plasma sample was separated for triglyceride and total cholesterol (Wieland, O. Methods of Enzymatic analysis. Bergermeyer, H. O., Ed., 1963. 211-214; Trinder, P. Ann. Clin. Biochem. 1969. 6: 24-27). Measurement of plasma triglyceride, total cholesterol and HDL were done using commercial kits (Dr. Reddy's Diagnostic Division, Hyderabad, India).
(§1) 1. Percent reduction in Blood sugar/triglycerides/total cholesterol were calculated according to the formula: [formula]

[4] = test system: hypercholesterolemic male Sprague Dawley rats; assay: Cholesterol lowering activity in hypercholesterolemic male Sprague Dawley rats; type: in vivo; conditions: 3 mg/kg/day oral for 3 days
Protocol: Male Sprague Dawley rats (NIN stock) were bred in DRF animal house. Animals were maintained under 12 hour light and dark cycle at 25±1° C. Rats of 180-200 gram body weight range were used for the experiment. Animals were made hypercholesterolemic by feeding 2% cholesterol and 1% sodium cholate mixed with standard laboratory chow [National Institute of Nutrition (NMN), Hyderabad, India] for 6 days. Throughout the experimental period the animals were maintained on the same diet (Petit, D., Bonnefis, M. T., Rey, C and Infante, R. Effects of ciprofibrate on liver lipids and lipoprotein synthesis in normo- and hyperlipidemic rats. Atherosclerosis. 1988. 74: 215-225).
The test compounds were administered orally at a dose 0.1 to 30 mg/kg/day for 3 days. Control group was treated with vehicle alone (0.25% Carboxymethylcellulose; dose 10 ml/kg).
The blood samples were collected in fed state 1 hour after drug administration on 0 and 3 day of compound treatment. The blood was collected from the retro-orbital sinus through heparinised capillary in EDTA containing tubes. After centrifugation, plasma sample was separated for total cholesterol, HDL and triglyceride estimations. Measurement of plasma triglyceride, total cholesterol and HDL were done using commercial kits (Dr. Reddy's Laboratory, Diagnostic Division, India). LDL and VLDL cholesterol were calculated from the data obtained for total cholesterol, HDL and triglyceride. The reduction of various parameters examined are calculated according to the formula given below.
as §1
2. LDL and VLDL cholesterol levels were calculated according to the formula: [formula]
VLDL cholesterol in mg/dl=[Total cholesterol−HDL cholesterol−LDL cholesterol] mg/dl.

[5] = test system: C57BL/KsJ-db/db mice; assay: Blood glucose and triglyceride lowering activity in db/db mice; type: in vivo; conditions: 3 mg/kg oral gavage daily for 6 days, plasma 1 h after dose on day 6
Text: Mutation in colonies of laboratory animals and different sensitivities to dietary regimens have made the development of animal models with non-insulin dependent diabetes and hyperlipidemia associated with obesity and insulin resistance possible. Genetic models such as db/db and ob/ob (Diabetes, (1982) 31(1): 1-6) mice and zucker fa/fa rats have been developed by the various laboratories for understanding the pathophysiology of disease and testing the efficacy of new antidiabetic compounds (Diabetes, (1983) 32: 830-838; Annu. Rep. Sankyo Res. Lab. (1994). 46: 1-57). The homozygous animals, C57 BL/KsJ-db/db mice developed by Jackson Laboratory, US, are obese, hyperglycemic, hyperinsulinemic and insulin resistant (J. Clin. Invest., (1990) 85: 962-967), whereas heterozygous are lean and normoglycemic. In db/db model, mouse progressively develops insulinopenia with age, a feature commonly observed in late stages of human type II diabetes when blood sugar levels are insufficiently controlled. The state of pancreas and its course vary according to the models. Since this model resembles that of type II diabetes mellitus, the compounds of the present invention were tested for blood sugar and triglycerides lowering activities.
Male C57BL/KsJ-db/db mice of 8 to 14 weeks age, having body weight range of 35 to 60 grams, bred at Dr. Reddy's Research Foundation (DRF) animal house, were used in the experiment. The mice were provided with standard feed (National Institute of Nutrition (NIN), Hyderabad, India) and acidified water, ad libitum. The animals having more than 350 mg/dl blood sugar were used for testing. The number of animals in each group was 4.
Test compounds were suspended on 0.25% carboxymethyl cellulose and administered to test group at a dose of 0.001 mg to 30 mg/kg through oral gavage daily for 6 days. The control group received vehicle (dose 10 ml/kg). On 6th day the blood samples were collected one hour after administration of test compounds/vehicle for assessing the biological activity.
The random blood sugar and triglyceride levels were measured by collecting blood (100 μl) through orbital sinus, using heparinised capillary in tubes containing EDTA which was centrifuged to obtain plasma. The plasma glucose and triglyceride levels were measured spectrometrically, by glucose oxidase and glycerol-3-PO4 oxidase/peroxidase enzyme (Dr. Reddy's Lab. Diagnostic Division Kits, Hyderabad, India) methods respectively.
The blood sugar and triglycerides lowering activities of the test compound was calculated according to the formula given below.
as §1

CCCc1nn(C)c2c(=O)n(CCOc3ccc(CC(OCC)C(=O)OCC)cc3)c(CC)nc12 (stereo not shown) [Example 1]
PPARα activity [1]: 5.00
PPARγ activity [2]: 11.0
Triglyceride (%)↓ [3]: 45%

CCCc1nn(C)c2c(=O)n(CCOc3ccc(CC(OCC)C(=O)O)cc3)c(CC)nc12 (stereo not shown) [Example 2]
HDL ↓ [4]: 164
Total Cholesterol (%)↓ [4]: 60%
Triglyceride (%)↓ [4]: 70%
LDL (%)↓ ([4]; LDL calculated from total cholesterol, HDL and triglyceride): 72%
VLDL (%)↓ ([4]; VLDL calculated from total cholesterol, HDL and LDL): 71%

CCCc1nn(C)c2c(=O)n(CCOc3ccc(CC(OCC)C(=O)OCC)cc3)c(C)nc12 (stereo not shown) [Example 3, Ethyl 3-[4-[2-(1,5-Dimethyl-7-oxo-3-propyl-6,7-dihydro-1H-pyrazolo[4,3-d]pyrimidin-6-yl)ethoxy]phenyl]-2-ethoxypropanoate]
PPARα activity [1]: 6.9
PPARγ activity [2]: 19.0
Reduction in Blood Glucose Level (%) [5]: 58%
Triglyceride Lowering (%) [5]: 23%
Triglyceride (%)↓ [3]: 61%

CCCc1nn(C)c2c(=O)n(CCOc3ccc(CC(OCC)C(=O)O)cc3)c(C)nc12 (stereo not shown) [Example 4, 3-[4-[2-(1,5-Dimethyl-7-oxo-3-propyl-6,7-dihydro-1H-pyrazolo[4,3-d]pyrimidin-6-yl)ethoxy]phenyl]-2-ethoxypropanoic Acid]
PPARα activity [1]: 8.32
PPARγ activity [2]: 14.6
Reduction in Blood Glucose Level (%) [5]: 42%
Triglyceride Lowering (%) [5]: 17%
Triglyceride (%)↓ [3]: 66%

CCCc1nn(C)c2c(=O)n(CCOc3ccc(CC(Oc4ccccc4)C(=O)O)cc3)c(CC)nc12 (stereo not shown) [Example 10, 3-[4-[2-(5-Ethyl-1-methyl-7-oxo-3-propyl-6,7-dihydro-1H-pyrazolo[4,3-d]pyrimidin-6-yl)ethoxy]phenyl]-2-phenoxypropanoic Acid]
Reduction in Blood Glucose Level (%) [5]: 33%
Triglyceride Lowering (%) [5]: 35%

CCCc1nn(C)c2c(=O)n(CCOc3ccc(CC(OCC)C(=O)OCC)cc3)c(CCC)nc12 (stereo not shown) [Example 13, Ethyl 3-[4-[2-(3,5-Dipropyl-1-methyl-7-oxo-6,7-dihydro-1H-pyrazolo[4,3-d]pyrimidin-6-yl)ethoxy]phenyl]-2-ethoxypropanoate]
Triglyceride (%)↓ [3]: 25%

CCCc1nn(C)c2c(=O)n(CCOc3ccc(C[C@@H](OCC)C(=O)N[C@H](CO)c4ccccc4)cc3)c(CC)nc12 [Example 18A, [2R, N(1S)]-2-Ethoxy-3-[4-[2-(5-ethyl-1-methyl-7-oxo-3-propyl-6,7-dihydro-1H-pyrazolo[4,3-d]pyrimidin-6-y]ethoxy]phenyl]-N-(2-hydroxy-1-phenylethyl) Propanamide]
melting point: 138 to 139 °C
